Measurements from patent US20260335344A1, “NOVEL FORMULATIONS AND USES” (DANSTAR FERMENT AG, priority 2022, published 2026).
Entries after “also recorded” stand apart in the source; their conditions may differ.

Key:
Acinetobacter baumannii = assay: Relative quantity of Acinetobacter baumannii by metagenomic (16S rRNA) sequencing after L-arabinose treatment; type: cell-based
From the text: (§1) The objective of the experiments is to evaluate the effect of L-arabinose at different concentrations on a bacterial pool mimicking the skin microbiota by quantification of the bacterial mix using metagenomic sequencing. Five different types of bacteria are obtained from ATCC®: Micrococcus luteus (Cat. No. 4698), Corynebacterium striatum (Cat. No. BAA-1293), Staphylococcus epidermidis (Cat. No. 12228), Acinetobacter baumannii (Cat. No. 19606) and Streptococcus mitis (Cat. No. NCIMB-13770). The bacteria are common skin bacteria, selected to roughly mimic the skin microbiota. The bacteria are grown on specific media, either solid media (Brain Heart Infusion (BHI) Agar from Condalab (Cat. No. 1048.00) or Trypticase Soy (TS) Agar from Condalab (Cat. No. 1068.00)) or on liquid media (either Brain Heart Infusion Broth from Condalab (Cat. No. 1400.00) or Trypticase Soy Broth from Condalab (Cat. No. 1224.00)). The bacteria culture is performed according to the ATCC instructions and adapted to the specific conditions of each bacterium: all bacteria are grown in BHI medium at 37° C. in an aerobic environment shaking at 120 rpm, except for Streptococcus mitis which requires an anaerobic environment, so without shaking and with paraffin oil from Sigma-Aldrich (Cat. No. 185812) above the medium to cut off contact with air.
(§2) Growth kinetics are carried out for each bacterium to determine their different growth phases and in particular the time needed to reach the exponential phase. Aerobically growing bacteria are plated on solid medium and then a colony is inoculated into 10 mL of liquid medium. An OD at 600 nm is then taken at regular time intervals from T0, the inoculation time, to obtain a growth curve until reaching the stationary phase. Anaerobically growing bacteria are directly inoculated at 500 μL into 9.5 mL of medium.
(§3) Bacteria are treated during 6 hours with L-arabinose, diluted in culture medium. L-Arabinose is first resuspended in culture medium at a concentration of 5%. The following dilutions are directly realized in culture medium at the following concentrations: 3.5%, 2%, 1% and 0.5%.
(§4) Each bacterium from the mix is initially grown independently. Once the exponential phase starts, Corynebacterium striatum, Micrococcus luteus and Staphylococcus epidermidis are mixed and grown in the presence or not of the L-arabinose at different concentrations for 6 hours, before reaching the stationary phase. Acinetobacter baumannii and Streptococcus mitis are grown independently with the L-arabinose due to their specific nature (Biosafety Level 2 (BSL-2) bacteria and anaerobic growth for Streptococcus mitis) and pulled in the final mix. Then, the mix is centrifugated and sent to sequencing. Bacterial DNA is isolated, sequenced, and 16S rRNA sequences are matched to taxonomic databases.
FIG. 2 depicts the relative quantity of Acinetobacter baumannii at different concentrations of L-arabinose. Relative Acinetobacter baumannii abundance is compared in all samples after metagenomic sequencing. Bacteria are treated with L-arabinose at 5 concentrations: 0.5%, 1%, 2%, 3.5% and 5%. Only the OTU identifying the Acinetobacter baumannii genera is represented.
(§5) The statistical analysis for FIGS. 2-5 is performed using two-tailed unpaired T-test vs NT-NS (*p-value<0.05, **p-value<0.01, ***p-value<0.001).

Micrococcus luteus = assay: Relative quantity of Micrococcus luteus by metagenomic (16S rRNA) sequencing after L-arabinose treatment; type: cell-based; conditions: 6 hours, vs control
From the text: as §1, §2, §3, §4, §5
FIG. 3 depicts the relative quantity of Micrococcus luteus at different concentrations of L-arabinose. Relative Micrococcus luteus abundance is compared in all samples after metagenomic sequencing. Bacteria are treated with L-arabinose at 5 concentrations: 0.5%, 1%, 2%, 3.5% and 5%. Only the OTU identifying the Micrococcus luteus genera is represented.

[1] = tested on: bacterial pool mimicking the skin microbiota; assay: Relative quantity of bacteria in the skin microbiota mix by metagenomic sequencing; type: cell-based; conditions: 6 hours
From the text: as §1, §2, §3, §4
FIG. 6 depicts the relative quantity of bacteria in the skin microbiota mix at different concentrations of L-arabinose. Relative bacteria abundance is detected in all samples after metagenomic sequencing. The bacteria seeded in the mix are Micrococcus luteus, Corynebacterium striatum, Staphylococcus epidermidis, Acinetobacter baumannii and Streptococcus mitis. Bacteria are treated with L-arabinose at 5 concentrations: 0.5%, 1%, 2%, 3.5% and 5%. All the OTUs detected are sorted by genera to be able to differentiate all the bacteria present in every sample.

intestinal sucrase = conditions: role: inhibitor; substrate sucrose; dietary supplement use; cited from earlier work
Streptococcus mitis = assay: Relative quantity of Streptococcus mitis by metagenomic (16S rRNA) sequencing after L-arabinose treatment; type: cell-based; conditions: for relative quantity of Streptococcus mitis / increase of relative quantity of Streptococcus mitis: vs control; for increase of relative quantity of Streptococcus mitis: statistically increases
From the text: as §1, §2, §3, §4, §5
FIG. 5 depicts the relative quantity of Streptococcus mitis at different concentrations of L-arabinose. Relative Streptococcus mitis abundance is compared in all samples after metagenomic sequencing. Bacteria are treated with L-arabinose at 5 concentrations: 0.5%, 1%, 2%, 3.5% and 5%. Only the OTU identifying the Streptococcus mitis genera is represented.

[2] = tested on: Staphylococcus epidermidis; assay: Relative quantity of Staphylococcus epidermidis by metagenomic (16S rRNA) sequencing after L-arabinose treatment; type: cell-based; conditions: 6 hours, vs control
From the text: as §1, with “The bacteria culture is performed according to the ATCC instructions and adapted to the specific conditions of each bacterium: all bacteria are grown in BHI medium at 37° C. in an aerobic environment shaking at 120 rpm, except for Streptococcus mitis which requires an anaerobic environment, so without shaking and with paraffin oil from Sigma-Aldrich (Cat. No. 185812) above the medium to cut off contact with air.” left out
FIG. 4 depicts the relative quantity of Staphylococcus epidermidis at different concentrations of L-arabinose. […]

[3] = 0.5% to 5% L-arabinose, 6 hours

Compound: O=C[C@H](O)[C@@H](O)[C@@H](O)CO [L-arabinose]
- effect on Acinetobacter baumannii (Acinetobacter baumannii; 0.5% L-arabinose): promotes Acinetobacter baumannii
- increase of relative quantity of Acinetobacter baumannii compared to the NT-NS control (Acinetobacter baumannii; 0.5% L-arabinose, 6 hours, vs NT-NS control): 7%
- effect on Acinetobacter baumannii (dose dependence) (Acinetobacter baumannii; [3]): dose-dependent effect
- relative quantity of Acinetobacter baumannii (Acinetobacter baumannii; 1% L-arabinose, 6 hours, vs NT-NS control): the same than the control
- relative quantity of Acinetobacter baumannii (Acinetobacter baumannii; 2% L-arabinose, 6 hours, vs NT-NS control): the same than the control
- decrease of relative quantity of Acinetobacter baumannii compared to the NT-NS control (Acinetobacter baumannii; 5% L-arabinose, 6 hours, vs NT-NS control, statistically decreases): up to 7%
- relative quantity of Micrococcus luteus (Micrococcus luteus; 0.5% L-arabinose): inhibit Micrococcus luteus; also recorded: statistically decreases
- relative quantity of Micrococcus luteus (Micrococcus luteus; 1% L-arabinose): no statistically significant change
- relative quantity of Micrococcus luteus (Micrococcus luteus; 2% L-arabinose): statistically significant increase
- relative quantity of Micrococcus luteus (Micrococcus luteus; 3.5% L-arabinose): no statistically significant change
- relative quantity of Micrococcus luteus (Micrococcus luteus; 5% L-arabinose): no statistically significant change
- relative quantity of bacteria in the skin microbiota mix ([1]; 0.5% L-arabinose): Acinetobacter baumannii is outgrowing the other bacteria
- homeostasis of the skin microbiota ([1]; 1% L-arabinose): maintaining the homeostasis of skin microbiota; also recorded: safekeeping the homeostasis of the skin microbiota
- difference of the bacterial mix compared to the NT-NS control ([1]; 1% or 2% L-arabinose, vs NT-NS control): no significant difference
- homeostasis of the skin microbiota ([1]; 2% L-arabinose): maintaining the homeostasis of skin microbiota; also recorded: safekeeping the homeostasis of the skin microbiota
- relative quantity of bacteria in the skin microbiota mix ([1]; 3.5% L-arabinose): Streptococcus mitis is fast growing at the expense of Acinetobacter baumannii
- relative quantity of bacteria in the skin microbiota mix ([1]; 5% L-arabinose): Streptococcus mitis is fast growing at the expense of Acinetobacter baumannii
- inhibition of sucrose absorption by inhibiting intestinal sucrase (intestinal sucrase): ability to inhibit absorption of sucrose
- relative quantity of Streptococcus mitis (Streptococcus mitis; 0.5% L-arabinose, 6 hours): tends to decrease
- effect on Streptococcus mitis (dose dependence) (Streptococcus mitis; [3]): dose-dependent effect
- relative quantity of Streptococcus mitis (Streptococcus mitis; 1% L-arabinose, 6 hours): tends to decrease
- relative quantity of Streptococcus mitis (Streptococcus mitis; 2% L-arabinose, 6 hours): the same than the control
- increase of relative quantity of Streptococcus mitis (Streptococcus mitis; 3.5% L-arabinose, 6 hours): more than 2 times
- increase of relative quantity of Streptococcus mitis (Streptococcus mitis; 5% L-arabinose, 6 hours): more than 2 times
- effect on Streptococcus mitis (Streptococcus mitis; higher concentrations of L-arabinose (3.5% and 5%)): promotes Streptococcus mitis
- relative quantity of Staphylococcus epidermidis ([2]; 0.5% L-arabinose): tendency to decrease
- relative quantity of Staphylococcus epidermidis ([2]; other concentrations (1%, 2%, 3.5%, 5%) of L-arabinose): no statistical differences
